{"source": "patent US7049080B2", "about": "“Process for detecting serine/threonine kinase activity” (priority 2000, dated 2006)", "key": {"[1]": {"molecular_target": "polyclonal phospho-JNK antibody NEB #9251", "assay": "Binding of polyclonal phospho-JNK antibody to TAMRA-labelled peptides (fluorescence polarization)", "design": "species or system rabbit", "source_text": "The polarization values dramatically increase when using the double-phosphorylated peptide substrate P1*^∘ in contrast to mono-phosphorylated labelled peptide P1^∘ (sequence see above).\nMeasurement of the Binding Affinity (KD) of Antibody NEB #9251:\nThis polyclonal antibody detects all three isoforms of the SAPK1/JNK proteins only when they are activated by dual phosphorylation at threonine183/tyrosine185. Binding of poly-clonal phospho-JNK antibody (at a dilution of 1:20) from NEB to TAMRA-labelled P1^∘- and P1*^∘ peptides (each 5 nM) was measured by fluorescence polarization."}, "[2]": {"tested_on": "NEB antibody #9251", "assay": "FP controls conjugate/high/low (Example 7)", "assay_type": "binding, rabbit", "details": "0 h", "protocol": "The following reagents have been used (the compositions of the buffers and specifications of the reagents are explained in more detail later on): Hepes buffer, MgCl2 10 mM, ATP 20 μM, P1^∘ peptide at 100 μM, NEB antibody # 9251 1:20 dilution, P1*^∘-TAMRA 5 nM, Pluronic 0.1%, MKK7 at 0, 0.005, 0.02, 0.08, 0.2, 0.5 and 2 μM.\nAfter addition of MKK7, the enzyme reactions were performed in Nunc chambers at RT. The samples were continuously measured at different time points by Fluorescence polarization.\n(§1) Bis-phosphorylated peptide P1*^∘ can be used as competitor, resulting in free labelled ligand called “low” or “negative control”. This can be seen in the following table 1."}, "[3]": {"tested_on": "NEB antibody #9251", "assay": "FP controls conjugate/high/low (Example 8)", "assay_type": "binding, rabbit", "details": "0 h", "protocol": "The following reagents have been used (explanations later on): Hepes buffer, MgCl2 (10 mM), ATP (20 μM), P1^∘ peptide (100 μM), polyclonal antibody NEB #9251 (1:20), P1*^∘-TAMRA (5 nM), Pluronic (0.1%), BSA (0.01%), MKK7 at (0.04, 0.08 and 0.2 μM), EDTA (10 mM) (all final conc.).\nThe enzyme reactions were performed in Eppendorf reaction tubes at RT. Aliquots of 20 μl were withdrawn from the reactions at different time points and mixed with 10 μl STOP solution. The stopped reactions were incubated at RT for at least 30 min and measured by Fluorescence Polarization.\nas §1"}, "[4]": {"molecular_target": "T1, MKK7 (Homo sapiens, UniProt O14733)", "T1 construct": "purchased Upstate Biotech 14-366", "T1 sequence (O14733 1-419)": "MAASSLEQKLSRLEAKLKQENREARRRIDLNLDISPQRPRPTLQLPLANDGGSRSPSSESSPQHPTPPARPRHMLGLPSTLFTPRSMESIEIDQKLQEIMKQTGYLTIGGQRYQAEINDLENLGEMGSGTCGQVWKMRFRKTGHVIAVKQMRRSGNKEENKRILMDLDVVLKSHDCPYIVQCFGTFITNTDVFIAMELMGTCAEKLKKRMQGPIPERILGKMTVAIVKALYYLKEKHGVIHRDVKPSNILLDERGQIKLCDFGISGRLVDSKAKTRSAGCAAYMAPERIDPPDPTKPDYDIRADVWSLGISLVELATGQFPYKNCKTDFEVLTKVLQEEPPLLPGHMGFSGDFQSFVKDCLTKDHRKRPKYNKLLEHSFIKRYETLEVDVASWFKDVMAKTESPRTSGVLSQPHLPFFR", "assay": "Determination of Km for ATP (MKK7 phosphorylation, FP read-out)", "assay_type": "biochemical", "details": "MKK7 80 nM, P1° 100 μM, RT", "protocol": "Efficient phosphorylation of P1^∘ peptide is dependent on the optimal ATP concentration. […] From the detected fluorescence polarization signals, the Michaelis-Menten constant (Km), reflecting the half-maximal phosphorylation rate, was determined for ATP.\nDetermination of Km for ATP (Read-out: Fluorescence Polarization): […]"}}, "note": "Non-standard residues stand in square brackets, D forms with d. No end group written: not given here. *: point of attachment. 5‑TAMRA = CN(C)c1ccc2c(-c3ccc(C(=O)*)cc3C(=O)[O-])c3ccc(N(C)C)cc3[o+]c2c1; pY = N[C@@H](Cc1ccc(OP(=O)(O)O)cc1)C(=O)O; pT = C[C@@H](OP(=O)(O)O)[C@H](N)C(=O)O; AEEA = NCCOCCOCC(=O)O"}
{"molecule": "5-TAMRA-AEEA-Lys-Phe-Met-Met-pThr-Pro-pTyr-Val-Val-Thr-Arg-NH2 ({5‑TAMRA-AEEA}-KFMM[pT]P[pY]VVTR-NH2; SMILES CSCC[C@H](NC(=O)[C@H](Cc1ccccc1)NC(=O)[C@H](CCCCN)NC(=O)COCCOCCNC(=O)c1ccc(-c2c3ccc(N(C)C)cc3[o+]c3cc(N(C)C)ccc23)c(C(=O)[O-])c1)C(=O)N[C@@H](CCSC)C(=O)N[C@H](C(=O)N1CCC[C@H]1C(=O)N[C@@H](Cc1ccc(OP(=O)(O)O)cc1)C(=O)N[C@H](C(=O)N[C@H](C(=O)N[C@H](C(=O)N[C@@H](CCCNC(=N)N)C(N)=O)[C@@H](C)O)C(C)C)C(C)C)[C@@H](C)OP(=O)(O)O) [P1*^∘-TAMRA]", "values": [{"measurement": "Kd", "setting": "[1]; antibody 1:20, peptide 5 nM, read-out: KD, affinity of polyclonal phospho-JNK antibody for peptide", "result": 2.6, "unit": "nM"}, {"measurement": "Fluorescence Polarization", "setting": "[2]; Conjugate alone", "result": 39.7, "unit": "mP"}, {"measurement": "Fluorescence Polarization", "setting": "[2]; High: + NEB ab (1:20)", "result": 139.1, "unit": "mP"}, {"measurement": "Fluorescence Polarization", "setting": "[3]; Conjugate alone", "result": 33.2, "unit": "mP"}, {"measurement": "Fluorescence Polarization", "setting": "[3]; High: + NEB ab (1:20)", "result": 145.7, "unit": "mP"}]}
{"molecule": "Nc1ncnc2c1ncn2[C@@H]1O[C@H](COP(=O)(O)OP(=O)(O)OP(=O)(O)O)[C@@H](O)[C@H]1O", "note": "[ATP]", "values": [{"measurement": "Vmax", "setting": "[4]", "result": 0.28, "unit": "mP/min"}]}
{"molecule": "H-Lys-Phe-Met-Met-Thr-Pro-pTyr-Val-Val-Thr-Arg-NH2 (H-KFMMTP[pY]VVTR-NH2; SMILES CSCC[C@H](NC(=O)[C@H](Cc1ccccc1)NC(=O)[C@@H](N)CCCCN)C(=O)N[C@@H](CCSC)C(=O)N[C@H](C(=O)N1CCC[C@H]1C(=O)N[C@@H](Cc1ccc(OP(=O)(O)O)cc1)C(=O)N[C@H](C(=O)N[C@H](C(=O)N[C@H](C(=O)N[C@@H](CCCNC(=N)N)C(N)=O)[C@@H](C)O)C(C)C)C(C)C)[C@@H](C)O) [P1^∘]", "values": [{"measurement": "Fluorescence Polarization", "setting": "[3]; Low: P1*°-Tamra + NEB ab (1:20) + competitor 200 nM", "result": 71.5, "unit": "mP"}]}
{"molecule": "TAMRA-labelled P1^∘-peptide: TAMRA-labelled mono-phosphorylated P1° peptide, control for antibody binding (KFMMTP[pY]VVTR-NH2; not fully specified (residue 5, N-terminus); also: TAMRA label, site not given here)", "values": [{"measurement": "binding of the polyclonal JNK antibody", "setting": "[1]; control", "result": "no binding"}]}
